From paper PMC9021288 (Nature Communications, 2022)
Where “and” joins values, the source holds several entries; their conditions need not be identical. Equal values may be shown once.

Tests used:
[1] = Solubility in PBS, FaSSIF, FeSSIF; assay type: physicochemical
Pharmacokinetics in mice = assay type: in vivo, male CD1 mice
Experimental: Subsequently, samples were spun down at 1640 g for 5-10 min at 4 °C within 30 min after collection and plasma was collected. […] Urine was collected following an intravenous dose in both rat and dog, allowing renal clearance to be estimated. Human renal clearance was estimated from dog renal clearance as previously described[40] and other human PK parameters were predicted using allometric scaling and/or in vitro clearance data. PK parameters were calculated by naïve pooled approach using WinNonLin software (Phoenix, version 6.3).

[2] = 7-day Maximum Tolerated Dose 1 (MTD1) rat study; assay type: in vivo, Wistar Han rats; parameters: AUC(0 - t) / Cmax / Urea / Glucose / Triglycerides: unit not given here
Description: See the summary of the study design in Supplementary Table 31. Nine-week-old Wistar (Crl:WI (Han)) rats were obtained from Charles River Laboratories (Domaine des Oncins, Saint-Germain-Nuelles, France). […] Animals were examined daily for any altered clinical signs, body weights, and food consumption. Blood samples were taken at different timepoints after the test item administration, and toxicokinetic exposure assessed under the defined experimental conditions and analyzed using Phoenix (version 6.4 and 1.4) (Supplementary Table 32). Measurements included hematology and clinical chemistry measurements. Animals were euthanized and necropsied at the end of the dosing period. At necropsy, major organ systems and tissues were collected and weighed and then examined for gross lesions as well as for microscopic changes.

Which results are given for C[C@@H](CNC(=O)[C@H](O)C(C)(C)CO)NC(=O)c1cc(F)c(F)cc1F [MMV693183]?
solubility ([1]; FaSSIF): 25.5 µM; solubility ([1]; FeSSIF): 25.0 µM; solubility ([1]; PBS): 7100 µg/mL; solubility ([1]; fasted-state simulated intestinal fluid): 9200 µg/mL; solubility ([1]; fed-state simulated intestinal fluid): 9100 µg/mL; Observed hepatic/ predicted hepatic (Pharmacokinetics in mice; Mouse): < 1.9; Observed total-renal = observed hepatic (Pharmacokinetics in mice; Mouse): < 13.4 mL/min/kg; Predicted hepatic plasma clearance (Pharmacokinetics in mice; Mouse, from in vitro hepatic clearance, Fu,p and B:P): 7 mL/min/kg and 7.0 mL/min/kg; Norm. conc i.v. (Pharmacokinetics in mice; Mouse, Time (hrs) 0): 0 ng/mL; Norm. conc i.v. (Pharmacokinetics in mice; Mouse, Time (hrs) 0.083333): 1320 ng/mL and 1393.33 ng/mL and 1330 ng/mL; Norm. conc i.v. (Pharmacokinetics in mice; Mouse, Time (hrs) 0.25): 846.667 ng/mL and 920 ng/mL and 863.333 ng/mL; Norm. conc i.v. (Pharmacokinetics in mice; Mouse, Time (hrs) 0.5): 636.667 ng/mL and 626.667 ng/mL and 630 ng/mL; Norm. conc i.v. (Pharmacokinetics in mice; Mouse, Time (hrs) 1): 324.667 ng/mL and 366.667 ng/mL and 300 ng/mL; Norm. conc i.v. (Pharmacokinetics in mice; Mouse, Time (hrs) 2): 132.333 ng/mL and 151 ng/mL and 104 ng/mL; Norm. conc i.v. (Pharmacokinetics in mice; Mouse, Time (hrs) 4): 39.3333 ng/mL and 48.3333 ng/mL and 26.9333 ng/mL; Norm. conc p.o. (Pharmacokinetics in mice; Mouse, Time (hrs) 0): 0 ng/mL; Norm. conc p.o. (Pharmacokinetics in mice; Mouse, Time (hrs) 0.25): 870 ng/mL and 850 ng/mL and 790 ng/mL; Norm. conc p.o. (Pharmacokinetics in mice; Mouse, Time (hrs) 0.5): 610 ng/mL and 600 ng/mL and 553.333 ng/mL; Norm. conc p.o. (Pharmacokinetics in mice; Mouse, Time (hrs) 1): 333.333 ng/mL and 313.333 ng/mL and 271.333 ng/mL; Norm. conc p.o. (Pharmacokinetics in mice; Mouse, Time (hrs) 2): 115 ng/mL and 103.667 ng/mL and 65 ng/mL; Norm. conc p.o. (Pharmacokinetics in mice; Mouse, Time (hrs) 24): 0.01333 ng/mL and 0.02 ng/mL; AUC0-∞ (Pharmacokinetics in mice; i.v. 3 mg/kg, mean): 3764.7 ng·h/mL; AUClast (Pharmacokinetics in mice; i.v. 3 mg/kg, mean): 3763.8 ng·h/mL; C0 (Pharmacokinetics in mice; i.v. 3 mg/kg, mean): 5013.7 ng/mL; Kel (Pharmacokinetics in mice; i.v. 3 mg/kg, mean): 0.58 h⁻¹; Vss_obs (Pharmacokinetics in mice; i.v. 3 mg/kg, mean): 1.0265 L/kg; CLtotal (Pharmacokinetics in mice; i.v. 3 mg/kg, mean, 3 mg/kg): 13.4 mL/min/kg and 13.36 mL/min/kg; T1/2 (Pharmacokinetics in mice; i.v. 3 mg/kg, mean, 3 mg/kg): 1.2 h and 1.19 h; share of total clearance contributed by the kidney (Pharmacokinetics in mice; mice): 48%; clearance contributed by the kidney (Pharmacokinetics in mice; mice, total minus predicted hepatic): 6.4 mL/min/kg; %F (Pharmacokinetics in mice; p.o. 30 mg/kg, mean): 70.03%; AUC0-∞ (Pharmacokinetics in mice; p.o. 30 mg/kg, mean): 26362.9 ng·h/mL; AUClast (Pharmacokinetics in mice; p.o. 30 mg/kg, mean): 26362.2 ng·h/mL; CLtotal (Pharmacokinetics in mice; p.o. 30 mg/kg, mean): 19.21 mL/min/kg; Cmax (Pharmacokinetics in mice; p.o. 30 mg/kg, mean): 25100.0 ng/mL; Kel (Pharmacokinetics in mice; p.o. 30 mg/kg, mean): 0.67 h⁻¹; T1/2 (Pharmacokinetics in mice; p.o. 30 mg/kg, mean): 1.05 h; Tmax (Pharmacokinetics in mice; p.o. 30 mg/kg, mean): 0.25 h; mortality ([2]; 60, 200, 600 mg/kg/day, 7 days): no mortality occurred; Glucose ([2]; Female, 60 mg/kg): 6.25 and 5.62 and 5.48; Triglycerides ([2]; Female, 60 mg/kg): 0.3 and 0.46 and 0.39; Urea ([2]; Female, 60 mg/kg): 6.7 and 8 and 8.3; Glucose ([2]; Female, 200 mg/kg): 5.19 and 5.85 and 7.06; Triglycerides ([2]; Female, 200 mg/kg): 0.51 and 0.91 and 0.6; Urea ([2]; Female, 200 mg/kg): 7.8 and 8 and 8.4; Glucose ([2]; Female, 600 mg/kg): 6.4 and 7.42 and 7.56; Triglycerides ([2]; Female, 600 mg/kg): 0.6 and 0.51 and 0.37; Urea ([2]; Female, 600 mg/kg): 7.4 and 6.8 and 9.9; Liver weight ([2]; MTD1 60 mg/kg/day, Females): 4.77 g; AUC(0 - t) ([2]; MTD1 60 mg/kg/day, Females, Day 1 then Day 7): 88.9; Liver weight ([2]; MTD1 60 mg/kg/day, Males): 7.73 g; Liver weight ([2]; MTD1 200 mg/kg/day, Females): 6.00 g; Liver weight ([2]; MTD1 200 mg/kg/day, Males): 8.66 g; Liver weight ([2]; MTD1 600 mg/kg/day, Females): 7.44 g; Liver weight ([2]; MTD1 600 mg/kg/day, Males): 11.22 g; Concentration ([2]; MTD1 females, Day 1, 60 mg/kg/day, 0 h): LLOQ; Concentration ([2]; MTD1 females, Day 1, 60 mg/kg/day, 1 h): 33.6 µM and 28.3 µM; Concentration ([2]; MTD1 females, Day 1, 60 mg/kg/day, 4 h): 2.9 µM and 3.29 µM; Concentration ([2]; MTD1 females, Day 1, 60 mg/kg/day, 8 h): 1.05 µM and 0.628 µM; Concentration ([2]; MTD1 females, Day 1, 60 mg/kg/day, 24 h): LLOQ; Concentration ([2]; MTD1 females, Day 1, 200 mg/kg/day, 0 h): LLOQ; Concentration ([2]; MTD1 females, Day 1, 200 mg/kg/day, 1 h): 86.7 µM and 116 µM; Concentration ([2]; MTD1 females, Day 1, 200 mg/kg/day, 4 h): 21.3 µM and 11.6 µM; Concentration ([2]; MTD1 females, Day 1, 200 mg/kg/day, 8 h): 6.7 µM and 4.68 µM; Concentration ([2]; MTD1 females, Day 1, 600 mg/kg/day, 0 h): LLOQ; Concentration ([2]; MTD1 females, Day 1, 600 mg/kg/day, 1 h): 311 µM; Concentration ([2]; MTD1 females, Day 1, 600 mg/kg/day, 4 h): 74.9 µM and 64.8 µM; Concentration ([2]; MTD1 females, Day 1, 600 mg/kg/day, 8 h): 49.5 µM and 25.8 µM; Concentration ([2]; MTD1 females, Day 1, 600 mg/kg/day, 24 h): LLOQ; Concentration ([2]; MTD1 females, Day 7, 60 mg/kg/day, 0 h): LLOQ; Concentration ([2]; MTD1 females, Day 7, 60 mg/kg/day, 1 h): 21.8 µM and 20.3 µM; Concentration ([2]; MTD1 females, Day 7, 60 mg/kg/day, 4 h): 2.9 µM and 3.02 µM; Concentration ([2]; MTD1 females, Day 7, 60 mg/kg/day, 8 h): 0.604 µM and 1.2 µM; Concentration ([2]; MTD1 females, Day 7, 60 mg/kg/day, 24 h): LLOQ; Concentration ([2]; MTD1 females, Day 7, 200 mg/kg/day, 0 h): LLOQ; Concentration ([2]; MTD1 females, Day 7, 200 mg/kg/day, 1 h): 10.4 µM and 9.61 µM; Concentration ([2]; MTD1 females, Day 7, 200 mg/kg/day, 4 h): 5.35 µM and 3.22 µM; Concentration ([2]; MTD1 females, Day 7, 200 mg/kg/day, 8 h): 0.804 µM and 0.957 µM; Concentration ([2]; MTD1 females, Day 7, 200 mg/kg/day, 24 h): LLOQ; Concentration ([2]; MTD1 females, Day 7, 600 mg/kg/day, 0 h): 0.568 µM and 0.368 µM; Concentration ([2]; MTD1 females, Day 7, 600 mg/kg/day, 1 h): 15.1 µM and 29.6 µM; Concentration ([2]; MTD1 females, Day 7, 600 mg/kg/day, 4 h): 8.62 µM and 9.68 µM; Concentration ([2]; MTD1 females, Day 7, 600 mg/kg/day, 8 h): 6.83 µM and 6.42 µM; Concentration ([2]; MTD1 males, Day 1, 60 mg/kg/day, 0 h): LLOQ; Concentration ([2]; MTD1 males, Day 1, 60 mg/kg/day, 1 h): 12 µM and 13.7 µM; Concentration ([2]; MTD1 males, Day 1, 60 mg/kg/day, 4 h): 1.09 µM and 1.97 µM; Concentration ([2]; MTD1 males, Day 1, 60 mg/kg/day, 24 h): LLOQ; Concentration ([2]; MTD1 males, Day 1, 200 mg/kg/day, 0 h): LLOQ; Concentration ([2]; MTD1 males, Day 1, 200 mg/kg/day, 1 h): 98.9 µM and 133 µM; Concentration ([2]; MTD1 males, Day 1, 200 mg/kg/day, 4 h): 14 µM and 18.5 µM; Concentration ([2]; MTD1 males, Day 1, 200 mg/kg/day, 24 h): LLOQ; Concentration ([2]; MTD1 males, Day 1, 600 mg/kg/day, 0 h): LLOQ; Concentration ([2]; MTD1 males, Day 1, 600 mg/kg/day, 1 h): 189 µM and 295 µM; Concentration ([2]; MTD1 males, Day 1, 600 mg/kg/day, 4 h): 69.9 µM and 98.6 µM; Concentration ([2]; MTD1 males, Day 7, 60 mg/kg/day, 0 h): LLOQ; Concentration ([2]; MTD1 males, Day 7, 60 mg/kg/day, 1 h): 2.78 µM and 3.29 µM; Concentration ([2]; MTD1 males, Day 7, 60 mg/kg/day, 8 h): LLOQ; Concentration ([2]; MTD1 males, Day 7, 60 mg/kg/day, 24 h): LLOQ; Concentration ([2]; MTD1 males, Day 7, 200 mg/kg/day, 0 h): LLOQ; Concentration ([2]; MTD1 males, Day 7, 200 mg/kg/day, 1 h): 15.5 µM and 8.65 µM; Concentration ([2]; MTD1 males, Day 7, 200 mg/kg/day, 4 h): 2.92 µM and 2.95 µM; Concentration ([2]; MTD1 males, Day 7, 200 mg/kg/day, 8 h): 1.04 µM and 0.952 µM; Concentration ([2]; MTD1 males, Day 7, 200 mg/kg/day, 24 h): LLOQ; Concentration ([2]; MTD1 males, Day 7, 600 mg/kg/day, 0 h): LLOQ; Concentration ([2]; MTD1 males, Day 7, 600 mg/kg/day, 4 h): 4.9 µM and 5.09 µM; Concentration ([2]; MTD1 males, Day 7, 600 mg/kg/day, 24 h): LLOQ; Liver weight ([2]; MTD1 study, females, 60 mg/kg/day, individual animals): 4.84 g and 4.87 g; Liver weight ([2]; MTD1 study, females, 200 mg/kg/day, individual animals): 6.04 g and 5.86 g; Liver weight ([2]; MTD1 study, females, 600 mg/kg/day, individual animals): 6.96 g; Liver weight ([2]; MTD1 study, males, 60 mg/kg/day, individual animals): 8.13 g and 7.71 g; Liver weight ([2]; MTD1 study, males, 200 mg/kg/day, individual animals): 7.63 g and 8.4 g; Liver weight ([2]; MTD1 study, males, 600 mg/kg/day, individual animals): 11.11 g and 12.08 g; Triglycerides ([2]; Male, 60 mg/kg): 0.56 and 0.92 and 0.69; Urea ([2]; Male, 60 mg/kg): 6.5 and 7.4 and 9.1; Glucose ([2]; Male, 60 mg/kg, 7 days, per rat): 7.28 and 9.9 and 8.53; Glucose ([2]; Male, 200 mg/kg): 7.64 and 9.24 and 10.45; Triglycerides ([2]; Male, 200 mg/kg): 0.58 and 0.71 and 0.55; Urea ([2]; Male, 200 mg/kg): 8.3 and 8.1 and 9.4; Glucose ([2]; Male, 600 mg/kg): 5.54 and 8.3 and 8.46; Triglycerides ([2]; Male, 600 mg/kg): 0.57 and 0.62 and 0.56; Urea ([2]; Male, 600 mg/kg): 9.5 and 9.2 and 8.3; increase in liver weight ([2]; males, 600 mg/kg/day): up to 71%; hematological and clinical chemistry parameters ([2]; rat, in vivo): no significant treatment-related deviations
